Data taken from US7786117B2, “Therapeutic substituted thiazolidinones, oxazolidinones, and related compounds” (Allergan, Inc., priority 2008, dated 2010).

Tested on: lashes and adjacent hairs of the eyelids
Test: Observation of lash and hair growth in glaucoma patients treated with bimatoprost in only one eye
Type: in vivo, human
From the text: In the course of treating patients having glaucoma, treatment may only be appropriate in one eye. […] The lash appearance on the lids of the treated eyes would have appeared quite attractive if it represented a bilateral phenomenon. As a result of its asymmetric nature, the long lashes on one side could be construed as disturbing from a cosmetic standpoint. A systemic examination was preformed as a result of the asymmetric phenomenon. It soon became apparent that this altered appearance was not an isolated finding.
The changes in the lashes were apparent on gross inspection in several patients once attention was focused on the issue. In those with light colored hair and lashes, the differences were only seen easily with the aid of the high magnification and lighting capabilities of the slit lamp biomicroscope. In the course of glaucoma follow-up examination, attention is generally immediately focused on the eye itself. As a result of the high power magnification needed only one eye is seen at a time and the eye is seen at a high enough power that the lashes are not in focus. At these higher powers, any lash asymmetry between the two eyes is not likely to be noticed except by careful systematic comparison of the lashes and adjacent hairs of the eyelids of the two eyes.
Observed parameters leading to the conclusion that more robust hair growth occurred in the treatment area following administration of the prostaglandin analogue were multiple. They included increased length of lashed, increased number of lashes along the normal lash line, increased thickness and luster of lashes, increased auxiliary lash-like terminal hair in transitional areas adjacent to areas of normal lash growth, increased auxiliary lash-like terminal hairs at the medial and lateral canthal area, increased pigmentation of the lashes, increased numbers, increased length, as well as increased luster, and thickness of fine hair on the skin of the adjacent lid, and finally, increased perpendicular angulation of lashes and lash-like terminal hairs.

CCNC(=O)CCC/C=C\C[C@@H]1[C@@H](/C=C/[C@@H](O)CCc2ccccc2)[C@H](O)C[C@@H]1O [bimatoprost]
lash appearance in the treated eye versus the non-treated eye (a glaucoma patient treated in one eye only): longer, thicker, and fuller in the treated eye than in the non-treated eye
differences in the lashes and adjacent hairs of the treated side (all patients taking the drug on a unilateral basis for longer than 6 months): Definite differences could be identified to varying degrees
hair growth in treated versus control areas, multiple parameters of hair appearance (many subjects, length, number, thickness, luster, pigmentation, angulation of lashes): hair growth is stimulated
